Data as given in patent US7166472B2, “Method for the identification of agents that inhibit or promote cataracts and uses thereof” (The General Hospital Corporation, priority 2000, dated 2007).
Changes are numbered by the printed parent chain. One block for each compound: values may come before it.

Tests used:
[1] = Superoxide assay (dihydroethidium fluorometric); type: biochemical; conditions: test compound 10 μM
Description: Superoxide Assay—The fluorometric assay for superoxide is based upon the dihydroethidium (DHE, HYDROETHDNE™) method (Molecular Probes, Eugene, Oreg.) and used according to the manufacturer's instructions. DHE (1 mM) was freshly prepared in 100% argon-sparged DMSO. The reaction solutions were carried out in PBS, pH 7.4, under ambient gas conditions, in 96-well format plates and contained a test compound (KYN, 3-HK, 3-HAA, and ANA, each at 10 μM), DHE (100 μM), +/− Cu(II)-glycine (1 μM) and incubated at 37EC for 60 minutes. […] Abolition of the reading by co-incubation with superoxide dismutase (1000 U/ml) was used for establishing superoxide specificity. The fluorescent readings were recorded by a Packard FLUOROCOUNT™ fluorescent plate reader with a 510 nm excitation filter and 590 nm emission filter. Potassium superoxide dissolved in degassed DMSO was used as a positive control.

[2] = Thiobarbituric acid-reactive substance (TBARS) assay for hydroxyl radical; type: biochemical; conditions: reaction with Cu(II)
Excerpt: Although two Fenton chemistry substrates, hydrogen peroxide and reduced redox-active metal, are produced by 3-HK and 3-HAA, evidence of the hydroxyl radical was not detected using the thiobarbituric acid-reactive substance assay (Huang, X. et al., Biochem. 38:7609–7616 (1999)) (data not shown).

[3] = Hydrogen peroxide assay (DCF fluorometric); type: biochemical
Description: Hydrogen Peroxide Assay—The fluorometric assay for hydrogen peroxide is based on the dichlorofluorescein diacetate (DCF) method (Molecular Probes, Eugene, Oreg.). The DCF solution (5 mM) in 100% ethanol was deacetylated in the presence of 0.01 M NaOH for 30 minutes and neutralized. Horseradish peroxidase (200 U/ml) was then added and the DCF concentration adjusted to 200 μM in PBS. The reaction solutions were carried out in PBS, pH 7.4, in a 96-well format plate (total volume=300 μL/well) and contained a test compound (KYN, 3-HK, 3-HAA, ANA, or ASC, each at 10 μM), deacetylated DCF (20 μM), and Cu(II)-glycine (1 μM) as indicated, incubated at 37° C. for 60 minutes. […] Abolition of the reading by co-incubation with catalase (1000 U/ml) was used for establishing H2O2 specificity. The fluorescent readings were recorded by a Packard FLURORCOUNT™ fluorescent plate reader with a 485 nm excitation filter and 530 nm emission filter. Concentrations were determined by comparison to a standard curve using reagent grade hydrogen peroxide in CHELEX™ chelating ion exchanae resin-treated PBS buffer, pH 7.4.
Reactions were conducted in the absence of added Cu(II), in the presence of added glycine-complexed Cu(II) (1 μM), in the presence of added glycine-complexed Cu(II) (1 μM) and catalase (1000 U/ml), or with added glycine-complexed Cu(II) (1 μM) and the copper chelator triethylenetetramine (TETA, 200 μM).

α-crystallin = target: T1, α-crystallin (Bos taurus, UniProt P02470+P02510); assay: α-Crystallin modification under longwave ultraviolet illumination; type: biochemical; conditions: exposure of α-crystallin in the presence of longwave ultraviolet illumination
T1 sequence (P02470 1-173): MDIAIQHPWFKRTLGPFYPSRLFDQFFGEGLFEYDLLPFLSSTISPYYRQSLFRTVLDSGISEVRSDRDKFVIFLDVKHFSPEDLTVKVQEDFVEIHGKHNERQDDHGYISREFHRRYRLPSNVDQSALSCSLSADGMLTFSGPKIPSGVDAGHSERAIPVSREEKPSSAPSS
T1 sequence (P02510 1-175): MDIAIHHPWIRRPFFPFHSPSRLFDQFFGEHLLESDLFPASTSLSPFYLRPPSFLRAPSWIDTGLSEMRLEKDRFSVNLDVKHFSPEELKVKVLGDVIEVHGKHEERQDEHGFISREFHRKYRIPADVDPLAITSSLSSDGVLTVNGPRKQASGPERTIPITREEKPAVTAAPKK

[4] = Metal reduction assay, Cu(II) to Cu(I) (BC/BCA indicator); type: biochemical; conditions: for reduction of Cu(II): test compound 10 μM, Cu(II)-glycine 25 μM, PBS pH 7.4, 37° C., dark, one hour
Description: (§1) Metal Reduction Assays—Assays were performed using a 96-well microtiter plate (Costar, Mass.). Test compounds from the kynurenine pathway (10 μM) or, as a positive control, ascorbic acid (ASC, 10 μM) were co-incubated with either Fe(III)-citrate (25 μM) and the Fe(II) indicator bathophenanthroline disulfonic acid (BP, 250 μM), or Cu(II)-glycine (25 μM) and the Cu(I) indicator bathocuproine disulfonic acid (BC) or bicinchoninic acid (BCA, 250 μM). Incubations were conducted in PBS, pH 7.4, at 37° C. in the dark for one hour. Absorbencies were then measured using a plate reader (SPECTRAmax Plus, Molecular Devices, CA) at the appropriate wavelengths: Fe(II)-BP complex at 535 nm (the known molar absorption coefficient, M535,=22140 M^−1 cm^−1), Cu(I)-BC complex at 483 nm, M483=12250 M^−1cm^−1), or Cu(I)-BCA complex at 562 nm, M562=7700 M^−1cm^−1). In control samples, absorbance from the metal ion and indicator in the absence of test compound and the absorbance of test compound in the presence of metal ions, but in the absence of indicator, were determined. The absorbencies from these controls were deducted from those obtained in the presence of the test compound, metal and indicator to yield the net absorbance (ΔA). Fe(II) or Cu(I) concentrations (μM) were calculated according to the formula: C(μM)=ΔA*10^6/Mλ.
The compounds comprising the kynurenine pathway (FIG. 1) were assayed for their ability to reduce […] and Cu(II) (FIG. 2A). […] Values represent the mean±SD for three independent measurements.

[5] = Cyclic voltammetry of kynurenine metabolites with Cu(II); type: physicochemical; conditions: metabolite 100 μM, cupric chloride 25 μM, PBS pH 7.4
Description: Cyclic Voltammetry—Cyclic voltammetry was performed at room temperature (22±2° C.) on ambient solutions using an EG&G PAR potentiostat, Model 273. The potentiostat was operated in Ramp Mode, generating a potential staircase waveform with a 0.25 mV step height. The potential window of +0.15 to −0.4V, in which Cu(I) is electroactive, but the metabolites are not, was scanned in both directions at a rate of 100 mV/sec. The current response was passed through a 5.3 Hz low pass filter. A minimum of three cycles were collected for each scan, ensuring the stability of the electrochemical response. The electrochemical cell consisted of an indium/tin oxide working electrode (Delta Technologies) with an active area of 0.32 cm^2, a platinum wire auxiliary electrode, and a Ag/AgCl (1 M KCl) reference electrode (Microelectrodes Inc.). Both the auxiliary and reference electrodes were positioned in the cell in close proximity to the working electrode. The working electrodes were pretreated with successive 10 minute sonications in Alconox (˜8 g/L), 95% ethanol, Milli-Q purified H2O (2×), and PBS (pH 7.4), followed by an overnight soak in PBS (pH 7.4). The ITO electrodes were subsequently “activated” immediately prior to use by successive cycling in PBS for three cycles in each of the following potential windows: +0.15 ? −0.4 V, +0.4 ? −0.4 V, and +1.0 ? −0.4 V. Cupric chloride (25 μM; Allied Chemical) was used as the Cu(II) source. Background voltammograms were obtained on each new electrode before testing the kynurenine pathway metabolites. PBS solutions of KYN, 3-HK, ANA, and 3-HAA (each at 100 μM) were separately scanned with and without added Cu(II) (25 μM). Each experiment also included a scan of Cu(II) (25 μM) in PBS without added test compound. All solutions were tested within minutes of being prepared. Each test was repeated to ensure the reproducibility of the results.
The voltammograms in FIGS. 3A–3D compare 3-HK and 3-HAA to their corresponding non-phenolic analogs, kynurenine (KYN) and anthranilic acid (ANA), in aqueous solutions of Cu(II) at pH 7.4. […] At potentials above +0.15 V, the metabolites undergo direct irreversible oxidation, a reaction that is not considered further here. Cyclic voltammetry of Cu(II) in PBS yielded a current response at ≈−100 mV due to reduction of the metal ion (scan “b” in each panel).

[6] = Metal reduction assay, Fe(III) to Fe(II) (BP indicator); type: biochemical; conditions: test compound 10 μM, Fe(III)-citrate 25 μM, PBS pH 7.4, 37° C., dark, one hour
Description: as §1, with “C(μM)=ΔA*10^6/Mλ. […]” for “C(μM)=ΔA*10^6/Mλ.”

[7] = Hydrogen peroxide assay (DCF fluorometric); type: biochemical; conditions: reacting with Cu(II), 37° C., dark
[8] = Metal reduction capacity of tanned calf lens α-crystallin, Cu(II); type: biochemical; conditions: α-crystallin treated with 100 μM reductant, then dialysis
Description: Studies of Tanned Calf Lens Crystalin in Assay of Crystallin Protein for Metal Reduction Capacity—α-Crystallin (10 mg/ml) from calf lens was modified by reaction with 3-HK (100 μM), 3-HAA (100 μM), or ASC (100 μM) in PBS, ph 7.4, for 12 hours at 4° C. in the dark. Control samples were incubated with ascorbic acid (100 μM) or without added reductant. The tanning incubation solutions also contained triethylenetetramine (TETA, 200 μM) to prevent cross-linking of the protein. After incubation, free reductant was removed from the tanned α-crystallin preparations by exhaustive dialysis at 4EC in the dark utilizing PBS, pH 7.4, containing CHELEX™ 100 chelating ion exchange resin (BioRad, Hercules, Calif.). The various modified α-crystallin preparations (100 μg/ml) were co-incubated with either Cu(II)-glycine glycine (25 μM) or Fe(III)-citrate (25 μM) for one hour at 37° C. and assayed for metal reduction capacity using the BC and BP spectrophotometric assay as detailed above. Incubated and dialyzed α-crystallin (100 μg/ml) and untreated α-crystallin (100 μg/ml) preparations were used for procedural control.
3-HK: α-crystallin reduced nearly 100% of the available Cu(II) and approximately 20% of the available Fe(III). 3-HAA: α-crystallin reduced approximately 65% of the available Cu(II).

[9] = target: T2, recombinant human αB-crystallin (Homo sapiens, UniProt P02511); assay: Recombinant human αB-crystallin cross-linking (SDS-PAGE, silver stain); type: biochemical; conditions: TETA 200 μM
T2 construct: gift of Dr. J. Liang, Brigham and Women's Hospital
T2 sequence (P02511 1-175): T1 sequence (P02510 1-175) with A40T, I61F, A132T, A152V
Description: Various solutions containing 3-HK (10 μM) or other kynurenine pathway metabolites (10 μM), Cu(II)-glycine (10 μM), Fe(III)-citrate (10 μM), and triethylenetetramine (TETA, 200 μM), were added in combinations as indicated. […] After incubation, aliquots of the total lens protein solutions were mixed with sample buffer containing 4% SDS and 5% β-mercaptoethanol, heated to 95° C. for 5 minutes, and loaded at 1 μg/lane on a 10–20% Tricine gel (Novex, San Diego, Calif.). […] For the experiments with recombinant αB-crystallin, aliquots of the protein solutions were mixed with sample running buffer containing NuPAGE sample buffer (Novex, San Diego, Calif.) and 10% β-mercaptoethanol, heated to 95° C. for 5 minutes, spun briefly, then loaded on a NuPAGE 4–12% Bis-Tris polyacrylamide gel at 375 ng/lane and electrophoresed with denaturing 3-(N-morpholino)propanesulfonic acid (MOPS)-SDS running buffer according to the manufacturer's recommendations.
To exclude the effects of other lens proteins on the observed findings in FIG. 5, these interactions with purified recombinant human αB-crystallin were examined.

αB-crystallin = target: T3, αB-crystallin (Bos taurus, UniProt P02510); assay: αB-crystallin cross-linking in total calf lens protein (Western blot)
T3 sequence (P02510 1-175): T1 sequence (P02510 1-175)

[10] = target: bovine serum albumin (BSA) (Bos taurus, UniProt P02769); conditions: 3-HK with Cu(II); TETA
Sequence of bovine serum albumin (BSA) (P02769 25-607): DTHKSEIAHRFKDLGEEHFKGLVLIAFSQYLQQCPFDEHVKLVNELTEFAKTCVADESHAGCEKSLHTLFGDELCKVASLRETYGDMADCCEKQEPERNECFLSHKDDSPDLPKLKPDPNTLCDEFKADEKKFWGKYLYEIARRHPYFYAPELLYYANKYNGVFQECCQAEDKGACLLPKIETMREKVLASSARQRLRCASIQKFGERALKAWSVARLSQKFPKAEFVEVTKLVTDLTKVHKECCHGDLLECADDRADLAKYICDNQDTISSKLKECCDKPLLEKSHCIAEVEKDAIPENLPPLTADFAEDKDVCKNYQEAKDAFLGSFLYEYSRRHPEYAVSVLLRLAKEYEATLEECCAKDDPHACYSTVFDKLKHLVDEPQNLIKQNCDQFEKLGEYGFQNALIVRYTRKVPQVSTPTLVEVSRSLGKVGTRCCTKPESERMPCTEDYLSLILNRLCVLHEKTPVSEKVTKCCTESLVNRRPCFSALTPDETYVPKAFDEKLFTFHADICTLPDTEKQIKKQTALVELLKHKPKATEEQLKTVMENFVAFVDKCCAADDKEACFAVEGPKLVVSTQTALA

capacity of altered α-crystallin to reduce metal and generate hydrogen peroxide (α-crystallin): dramatically enhanced capacity
SMILES: Nc1c(O)cccc1C(=O)O [3-HAA, 3-hydroxyanthranilic acid]
effect of Cu(II) on superoxide generation ([1]; Cu(II)-glycine 1 μM): strongly promoted
superoxide production ([1]; ambient oxygen, dark, 60 minutes): significant superoxide production
evidence of the hydroxyl radical [2]: not detected
hydrogen peroxide generated relative to available Cu(II) [3]: approximately 3 fold
hydrogen peroxide generated ([3]; ambient gas conditions, CHELEX-treated PBS, FIG. 4C): approx. 3 μM
reduction of Cu(II) [4]: 100%
Cu(II) reduction wave in presence of metabolite [5]: markedly decreased
reduction of Fe(III) [6]: approximately 50%

capacity of altered α-crystallin to reduce metal and generate hydrogen peroxide (α-crystallin): did not share this property
SMILES: O=C1O[C@H]([C@@H](O)CO)C(O)=C1O [ASC, ascorbic acid, reference compound]
time dependence of hydrogen peroxide generation [7]: continuous over five hours
enhancement of α-crystallin reducing efficiency after treatment [8]: did not result in the enhancement

effect on 3-HAA Cu(II)-dependent oligomerization and loss of the monomer [9]: reversed
effect on cross-linking by Cu(II) and 3-HK [9]: substantially attenuated
effect on depletion of monomeric αB-crystallin by 3-HK and Cu(II) [9]: completely reversed the depletion
effect on 3-HK induced αB-crystallin cross-linking (αB-crystallin; TETA 200 μM co-incubation): abolished
effect on depletion of monomeric αB-crystallin (αB-crystallin; co-incubated with 3-HK and Cu(II), TETA 200 μM): reversed the depletion
effect on BSA protein depletion [10]: abolished
SMILES: NCCNCCNCCN [TETA, triethylenetetramine, reference compound]
effect on hydrogen peroxide generation by 3-HK or 3-HAA ([3]; Cu(II) 1 μM, catalase 1000 U/ml or TETA 200 μM): abolished
effect of chelator on metal reduction by 3-HK, 3-HAA and XA ([4]; chelator 250 μM): abolished

SMILES: O=C(O)c1cc(O)c2cccc(O)c2n1 [XA, xanthurenic acid]
reduction of Cu(II) [4]: approximately 40%
reduction of Fe(III) [6]: did not reduce
